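48-hour exposure; five concentrations; linearly interpolated endpoints. Here, GI50 denotes the concentration required for 50% inhibition of growth. TGI marks complete inhibition of growth.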
What was measured:
Experiment in all cases: growth of human tumour cells (NCI), 48 h
[1] = system: LOX IMVI melanoma
[2] = system: HS 578T breast
[3] = system: CCRF-CEM leukemia
[4] = system: HCT-116 colon
[5] = system: DU-145 prostate
[6] = system: SK-OV-3 ovarian
[7] = system: SNB-75 CNS
[8] = system: OVCAR-8 ovarian
[9] = system: PC-3 prostate
[10] = system: MDA-MB-231 breast
[11] = system: IGROV1 ovarian
[12] = system: NCI/ADR-RES ovarian
[13] = system: SN12C renal
[14] = system: OVCAR-4 ovarian
[15] = system: CAKI-1 renal
[16] = system: SF-539 CNS
[17] = system: SR leukemia
[18] = system: ACHN renal
[19] = system: MALME-3M melanoma
[20] = system: MDA-MB-435
[21] = system: SK-MEL-2 melanoma
[22] = system: HT29 colon
[23] = system: UACC-62 melanoma
[24] = system: MOLT-4 leukemia
[25] = system: HOP-92 NSCLC
[26] = system: T-47D breast
[27] = system: HCT-15 colon
[28] = system: UACC-257 melanoma
[29] = system: UO-31 renal
[30] = system: NCI-H23 lung
[31] = system: KM12 colon
[32] = system: A498 renal
[33] = system: RXF 393 renal
[34] = system: SF-268 CNS
[35] = system: NCI-H460 lung
[36] = system: OVCAR-5 ovarian
[37] = system: SK-MEL-28 melanoma
[38] = system: M14 melanoma
[39] = system: SK-MEL-5 melanoma
[40] = system: SW-620 colon
[41] = system: EKVX NSCLC
[42] = system: K-562 leukemia
[43] = system: A549 NSCLC
[44] = system: NCI-H522 lung
[45] = system: U251 CNS
[46] = system: HL-60(TB) leukemia
[47] = system: MCF7 breast
[48] = system: OVCAR-3 ovarian
[49] = system: TK-10 renal
[50] = system: COLO 205 colon
[51] = system: SNB-19 CNS
[52] = system: SF-295 CNS
[53] = system: NCI-H226 lung
[54] = system: HOP-62 NSCLC
[55] = system: RPMI-8226 leukemia
[56] = system: 786-0 renal
[57] = system: BT-549 breast
[58] = system: HCC-2998 colon

COc1ccc(F)cc1/C=C/C(=O)/C=C(/C=C/c1cc(F)ccc1OC)OB(F)F
GI50 [1]: 1.25 µM | TGI [1]: 2.56 µM | GI50 [2]: 3.13 µM | TGI [2]: > 100 µM | GI50 [3]: 0.261 µM | TGI [3]: 0.679 µM | GI50 [4]: 1.39 µM | TGI [4]: 4.21 µM | GI50 [5]: 2.06 µM | TGI [5]: > 100 µM | GI50 [6]: 3.48 µM | TGI [6]: > 100 µM | GI50 [7]: 1.61 µM | TGI [7]: 4.86 µM | GI50 [8]: 0.513 µM | TGI [8]: 5.23 µM | GI50 [9]: 1.5 µM | TGI [9]: 3.89 µM | GI50 [10]: 2.17 µM | TGI [10]: 6.1 µM | GI50 [11]: 2.04 µM | TGI [11]: 6.05 µM | GI50 [12]: 1.66 µM | TGI [12]: 6.41 µM | GI50 [13]: 1.64 µM | TGI [13]: 4.83 µM | GI50 [14]: 2.33 µM | TGI [14]: > 100 µM | GI50 [15]: 1.14 µM | TGI [15]: 2.44 µM | GI50 [16]: 2.4 µM | TGI [16]: 6.68 µM | GI50 [17]: 0.481 µM | TGI [17]: 23.4 µM | GI50 [18]: 1.02 µM | TGI [18]: 2.37 µM | GI50 [19]: 2.05 µM | TGI [19]: 9.12 µM | GI50 [20]: 1.47 µM | TGI [20]: 5.02 µM | GI50 [21]: 2.55 µM | TGI [21]: 7 µM | GI50 [22]: 1.85 µM | TGI [22]: 4.79 µM | GI50 [23]: 1.27 µM | TGI [23]: 2.9 µM | GI50 [24]: 0.321 µM | TGI [24]: 4.75 µM | GI50 [25]: 2.04 µM | TGI [25]: 4.62 µM | GI50 [26]: 2.17 µM | TGI [26]: 96.6 µM | GI50 [27]: 1.27 µM | TGI [27]: 2.93 µM | GI50 [28]: 2.03 µM | TGI [28]: 7.48 µM | GI50 [29]: 1.13 µM | TGI [29]: 2.47 µM | GI50 [30]: 1.46 µM | TGI [30]: 4.05 µM

Cc1cccc(NC2=C(Cl)C(=O)N(Cc3ccc(Cl)cc3)C2=O)c1
GI50 [31]: 3.27 µM | TGI [31]: 16.9 µM | GI50 [1]: 2.88 µM | TGI [1]: 16 µM | GI50 [32]: 2 µM | TGI [32]: 5.14 µM | GI50 [2]: 7.35 µM | TGI [2]: 37.3 µM | GI50 [33]: 7.72 µM | TGI [33]: 27.6 µM | GI50 [3]: 0.214 µM | TGI [3]: 1.78 µM | GI50 [4]: 2.94 µM | TGI [4]: 10.8 µM | GI50 [5]: 9.97 µM | TGI [5]: 60.2 µM | GI50 [6]: 3.51 µM | TGI [6]: 18.7 µM | GI50 [34]: 4.93 µM | TGI [34]: > 100 µM | GI50 [8]: 6.46 µM | TGI [8]: 23.8 µM | GI50 [9]: 2.1 µM | TGI [9]: 8.67 µM | GI50 [10]: 2.27 µM | TGI [10]: 8.77 µM | GI50 [35]: 2.81 µM | TGI [35]: 33.9 µM | GI50 [36]: 28 µM | TGI [36]: 74.5 µM | GI50 [37]: 3.88 µM | TGI [37]: 22.8 µM | GI50 [11]: 2.25 µM | TGI [11]: 12.1 µM | GI50 [38]: 4.33 µM | TGI [38]: 19.9 µM | GI50 [39]: 2.23 µM | TGI [39]: 7.76 µM | GI50 [12]: 1.56 µM | TGI [12]: 8.03 µM | GI50 [13]: 4.37 µM | TGI [13]: 43.6 µM | GI50 [40]: 2.23 µM | TGI [40]: 12.9 µM | GI50 [14]: 3.84 µM | TGI [14]: 40.4 µM | GI50 [15]: 4.61 µM | TGI [15]: 24.6 µM | GI50 [41]: 7.15 µM | TGI [41]: 27.1 µM | GI50 [42]: 3.63 µM | TGI [42]: 13.9 µM | GI50 [16]: 2.11 µM | TGI [16]: 13.6 µM | GI50 [17]: 1.79 µM | TGI [17]: 4.88 µM | GI50 [19]: 3.25 µM | TGI [19]: 22.7 µM | GI50 [43]: 12.5 µM | TGI [43]: 34.2 µM | GI50 [44]: 3.09 µM | TGI [44]: 13.1 µM | GI50 [20]: 4.74 µM | TGI [20]: 19 µM | GI50 [23]: 4.89 µM | TGI [23]: 29.9 µM | GI50 [45]: 4.08 µM | TGI [45]: > 100 µM | GI50 [24]: 3.14 µM | TGI [24]: 12.4 µM | GI50 [46]: 4.83 µM | TGI [46]: 20.3 µM | GI50 [47]: 3.17 µM | TGI [47]: > 100 µM | GI50 [26]: 3.47 µM | TGI [26]: 28.9 µM | GI50 [48]: 7.19 µM | TGI [48]: 21 µM | GI50 [49]: 3.8 µM | TGI [49]: 21 µM | GI50 [50]: 3.08 µM | TGI [50]: 15 µM | GI50 [51]: 2.94 µM | TGI [51]: 25.8 µM | GI50 [52]: 5.8 µM | TGI [52]: 27.4 µM | GI50 [28]: 16.6 µM | TGI [28]: 47.9 µM | GI50 [29]: 11.9 µM | TGI [29]: > 100 µM | GI50 [30]: 1.64 µM | TGI [30]: 10.7 µM | GI50 [53]: 1.2 µM | TGI [53]: 8.04 µM | GI50 [54]: 3.88 µM | TGI [54]: 15 µM | GI50 [55]: 1.07 µM | TGI [55]: 3.2 µM | GI50 [56]: 2.16 µM | TGI [56]: 14.8 µM

Cn1c(-c2c(N)n(Cc3ccc(C(F)(F)F)cc3)c3nc(C#N)c(C#N)nc23)nc2ccccc21
GI50 [31]: 18.2 µM | TGI [31]: 38.2 µM | GI50 [1]: 14.8 µM | TGI [1]: 30.2 µM | GI50 [32]: 5.92 µM | TGI [32]: 25.3 µM | GI50 [33]: 11.3 µM | TGI [33]: 25.3 µM | GI50 [3]: 17.2 µM | TGI [3]: 45.7 µM | GI50 [4]: 13.1 µM | TGI [4]: 26.9 µM | GI50 [5]: 25.3 µM | TGI [5]: 65.8 µM | GI50 [6]: 34.7 µM | TGI [6]: > 100 µM | GI50 [7]: 17 µM | TGI [7]: 78.3 µM | GI50 [34]: 19.7 µM | TGI [34]: 56.5 µM | GI50 [8]: 32 µM | TGI [8]: 97.5 µM | GI50 [9]: 6.95 µM | TGI [9]: 69.6 µM | GI50 [10]: 14.8 µM | TGI [10]: 31.8 µM | GI50 [35]: 14.5 µM | TGI [35]: 40.3 µM | GI50 [36]: 19.8 µM | TGI [36]: 44.2 µM | GI50 [37]: 14.3 µM | TGI [37]: 29.1 µM | GI50 [39]: 16.3 µM | TGI [39]: 31.5 µM | GI50 [12]: 30.2 µM | TGI [12]: > 100 µM | GI50 [13]: 24.2 µM | TGI [13]: 71.6 µM | GI50 [40]: 19.5 µM | TGI [40]: 42.2 µM | GI50 [14]: 32.7 µM | TGI [14]: > 100 µM | GI50 [15]: 17.4 µM | TGI [15]: 57.3 µM | GI50 [41]: 13.8 µM | TGI [41]: > 100 µM | GI50 [42]: 13.4 µM | TGI [42]: 44.6 µM | GI50 [57]: 20.8 µM | TGI [57]: 86.6 µM | GI50 [16]: 19.9 µM | TGI [16]: 42.8 µM | GI50 [17]: 20.6 µM | TGI [17]: 47.3 µM | GI50 [18]: 22 µM | TGI [18]: > 100 µM | GI50 [19]: 21.9 µM | TGI [19]: 63.6 µM | GI50 [43]: 32.8 µM | TGI [43]: > 100 µM | GI50 [20]: 20.7 µM | TGI [20]: 49.2 µM | GI50 [21]: 19.5 µM | TGI [21]: 60.3 µM | GI50 [22]: 24.4 µM | TGI [22]: 73.1 µM | GI50 [58]: 24.5 µM | TGI [58]: 56.4 µM | GI50 [23]: 11.2 µM | TGI [23]: 25.5 µM | GI50 [45]: 12.5 µM | TGI [45]: 30.4 µM | GI50 [24]: 12.8 µM | TGI [24]: 40.5 µM | GI50 [46]: 16.7 µM | TGI [46]: 39.3 µM | GI50 [47]: 16 µM | TGI [47]: 57.4 µM | GI50 [25]: 6.71 µM | TGI [25]: 38.3 µM | GI50 [26]: 8.76 µM | TGI [26]: 74.7 µM | GI50 [27]: 20.3 µM | TGI [27]: > 100 µM | GI50 [48]: 6.44 µM | TGI [48]: 22.3 µM | GI50 [49]: 23.6 µM | TGI [49]: 80.6 µM | GI50 [50]: 18.3 µM | TGI [50]: 34.1 µM | GI50 [51]: 11.7 µM | TGI [51]: 73 µM | GI50 [52]: 11.2 µM | TGI [52]: 29.8 µM | GI50 [28]: 28.1 µM | TGI [28]: 65.2 µM | GI50 [29]: 21.7 µM | TGI [29]: > 100 µM | GI50 [30]: 24.4 µM | TGI [30]: 70.2 µM | GI50 [53]: 17.2 µM | TGI [53]: 36.2 µM | GI50 [54]: 14.8 µM | TGI [54]: 33.2 µM | GI50 [55]: 5.69 µM | TGI [55]: 26.4 µM | GI50 [56]: 18.3 µM | TGI [56]: 40.2 µM
